Test results from patent US20250026745A1 (Bluejay Therapeutics, Inc., priority 2023, published 2025).

Target: recombinant 17β-HSD13 protein (Homo sapiens (Human), UniProt Q7Z5P4)
Experiment: 17β-HSD13 biochemical assay (NAD+/NADH Glo chemiluminescence)
Conditions: 17β-HSD13 50 nM, NAD+ 10 mM, β-estradiol 20 μM, 2 hours room temperature
Description: 17β-HSD13 biochemical assays are generically described in patents WO 2022/020730, WO 2021/003295, and WO 2023/023310. More specifically, recombinant 17β-HSD13 protein was assayed in a buffer containing 200 mM Tris pH 7.5, 0.01% Triton X-100, and 0.02% BSA into a 384-well assay plate. Compounds were incubated with 17β-HSD13 (final 50 nM) and NAD+ (final 10 mM) at room temperature for 1 h prior to substrate addition. The assay reaction was then initiated by addition of β-estradiol (final 20 μM), and the reaction mixture was incubated for 2 hours at room temperature. Product formation was detected with chemiluminescence by adding equal volume of NAD+/NADH Glo reagent (Promega, #G9062) and read on a PHERAstar microplate reader (BMG LABTECH). IC50 values were determined with GraphPad Prism®, where log-transformed concentration values and the inhibition data were fitted to a four-parameter logistic equation. Y=Bottom+(Top−Bottom)/(1+10^((Log IC50−X)*HillSlope)). The original, % control, or % inhibition data are represented by Y along with their minimal (Bottom) and maximal (Top) values. The inhibitor concentration is represented by X, IC50 is the concentration at 50% maximal value, and Hill Slope is the slope factor.

Sequence of recombinant 17β-HSD13 protein (Q7Z5P4 20-300): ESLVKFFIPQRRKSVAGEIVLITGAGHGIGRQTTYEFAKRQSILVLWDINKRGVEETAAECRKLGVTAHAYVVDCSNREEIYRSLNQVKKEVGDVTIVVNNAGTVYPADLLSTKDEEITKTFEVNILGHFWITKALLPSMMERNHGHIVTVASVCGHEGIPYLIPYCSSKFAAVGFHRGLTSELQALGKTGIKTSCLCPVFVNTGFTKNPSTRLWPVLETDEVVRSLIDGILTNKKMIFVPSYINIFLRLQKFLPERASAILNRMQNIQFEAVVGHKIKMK

SMILES	IC50 [nM]
O=C1N(Cc2ccccc2)C(=O)C2(CC2)N1Cc1nnc(-c2cc(C3CC3)c(F)c(O)c2F)s1 [Compound I-63, 6-benzyl-4-((5-(5-cyclopropyl-2,4-difluoro-3-hydroxyphenyl)-1,3,4-thiadiazol-2-yl)methyl)-4,6-diazaspiro[2.4]heptane-5,7-dione]	18
O=C1N(CC(F)(F)F)C(=O)C2(CC2)N1Cc1nnc(-c2cc(C(F)(F)F)c(F)c(O)n2)s1 [Compound I-60, 4-((5-(5-fluoro-6-hydroxy-4-(trifluoromethyl)pyridin-2-yl)-1,3,4-thiadiazol-2-yl)methyl)-6-(2,2,2-trifluoroethyl)-4,6-diazaspiro[2.4]heptane-5,7-dione]	2960
CC[C@@H](C)N1C(=O)N(Cc2nnc(-c3ccc(F)c(O)n3)s2)C2(CC2)C1=O [Compound I-77, (R)-6-(sec-butyl)-4-((5-(5-fluoro-6-hydroxypyridin-2-yl)-1,3,4-thiadiazol-2-yl)methyl)-4,6-diazaspiro[2.4]heptane-5,7-dione]	1060
CCCCN1C(=O)N(Cc2nnc(-c3ccc(F)c(O)c3F)s2)C2(CC2)C1=O [Compound I-28, 6-butyl-4-((5-(2,4-difluoro-3-hydroxyphenyl)-1,3,4-thiadiazol-2-yl)methyl)-4,6-diazaspiro[2.4]heptane-5,7-dione]	8.11
O=C1N([C@@H](c2ccc(F)cc2F)C(F)(F)F)C(=O)C2(CC2)N1Cc1nnc(-c2ccc(F)c(O)c2F)s1 [Compound I-90B, (S)-4-((5-(2,4-difluoro-3-hydroxyphenyl)-1,3,4-thiadiazol-2-yl)methyl)-6-(1-(2,4-difluorophenyl)-2,2,2-trifluoroethyl)-4,6-diazaspiro[2.4]heptane-5,7-dione]	6.53
CC(C)(C)N1C(=O)N(Cc2nnc(-c3ccc(F)c(O)n3)s2)C2(CC2)C1=O [Compound I-81, 6-(tert-butyl)-4-((5-(5-fluoro-6-hydroxypyridin-2-yl)-1,3,4-thiadiazol-2-yl)methyl)-4,6-diazaspiro[2.4]heptane-5,7-dione]	602
CC(C)N1C(=O)N(Cc2nnc(-c3ccc(F)c(O)n3)s2)C2(CC2)C1=O [Compound I-76, 4-((5-(5-fluoro-6-hydroxypyridin-2-yl)-1,3,4-thiadiazol-2-yl)methyl)-6-isopropyl-4,6-diazaspiro[2.4]heptane-5,7-dione]	1390
O=C1N(CC(F)(F)F)C(=O)C2(CC2)N1Cc1nnc(-c2cc(C(F)(F)F)c(F)c(O)c2F)s1 [Compound I-56, 4-((5-(2,4-difluoro-3-hydroxy-5-(trifluoromethyl)phenyl)-1,3,4-thiadiazol-2-yl)methyl)-6-(2,2,2-trifluoroethyl)-4,6-diazaspiro[2.4]heptane-5,7-dione]	12.5
O=C1N(Cc2ccccc2)C(=O)C2(CC2)N1Cc1nnc(-c2cc(C(F)(F)F)c(F)c(O)n2)s1 [Compound I-61, 6-benzyl-4-((5-(5-fluoro-6-hydroxy-4-(trifluoromethyl)pyridin-2-yl)-1,3,4-thiadiazol-2-yl)methyl)-4,6-diazaspiro[2.4]heptane-5,7-dione]	505
O=C1N(CC(F)(F)F)C(=O)C2(CC2)N1Cc1nnc(-c2cc(C3CC3)c(F)c(O)c2F)s1 [Compound I-62, 4-((5-(5-cyclopropyl-2,4-difluoro-3-hydroxyphenyl)-1,3,4-thiadiazol-2-yl)methyl)-6-(2,2,2-trifluoroethyl)-4,6-diazaspiro[2.4]heptane-5,7-dione]	84.9
O=C(O)CN1C(=O)N(Cc2nnc(-c3ccc(F)c(O)c3Cl)s2)C2(CC2)C1=O [Compound I-45, 2-(4-((5-(2-chloro-4-fluoro-3-hydroxyphenyl)-1,3,4-thiadiazol-2-yl)methyl)-5,7-dioxo-4,6-diazaspiro[2.4]heptan-6-yl)acetic acid]	1030
COc1ccc(CN2C(=O)N(Cc3nnc(-c4ccc(F)c(O)c4Cl)s3)C3(CC3)C2=O)c(F)c1 [Compound I-44, 4-((5-(2-chloro-4-fluoro-3-hydroxyphenyl)-1,3,4-thiadiazol-2-yl)methyl)-6-(2-fluoro-4-methoxybenzyl)-4,6-diazaspiro[2.4]heptane-5,7-dione]	7.38
CCN1C(=O)N(Cc2nnc(-c3cncc(O)c3Cl)s2)C2(CC2)C1=O [Compound I-11, 4-((5-(4-chloro-5-hydroxypyridin-3-yl)-1,3,4-thiadiazol-2-yl)methyl)-6-ethyl-4,6-diazaspiro[2.4]heptane-5,7-dione]	245
O=C1N(C(c2ccc(F)cc2F)C(F)(F)F)C(=O)C2(CC2)N1Cc1nnc(-c2ccc(F)c(O)c2Cl)s1 (single isomer, unassigned) [Compound I-54B]	8.43
O=C1N(C(c2ccccc2)c2ccccc2)C(=O)C2(CC2)N1Cc1nnc(-c2ccc(F)c(O)c2F)s1 [Compound I-95, 6-benzhydryl-4-((5-(2,4-difluoro-3-hydroxyphenyl)-1,3,4-thiadiazol-2-yl)methyl)-4,6-diazaspiro[2.4]heptane-5,7-dione]	62
O=C1N(Cc2nnc(-c3ccc(F)c(O)c3F)s2)C2(CC2)C(=O)N1C1(C(F)(F)F)CC1 [Compound I-87, 4-((5-(2,4-difluoro-3-hydroxyphenyl)-1,3,4-thiadiazol-2-yl)methyl)-6-(1-(trifluoromethyl)cyclopropyl)-4,6-diazaspiro[2.4]heptane-5,7-dione]	11.3
CNC(=O)c1ccc(CN2C(=O)N(Cc3nnc(-c4ccc(F)c(O)c4F)s3)C3(CC3)C2=O)cc1 [Compound I-93, 4-((4-((5-(2,4-difluoro-3-hydroxyphenyl)-1,3,4-thiadiazol-2-yl)methyl)-5,7-dioxo-4,6-diazaspiro[2.4]heptan-6-yl)methyl)-N-methylbenzamide]	75.4
O=C1N(c2ccccc2)C(=O)C2(CC2)N1Cc1nnc(-c2ccc(F)c(O)c2F)s1 [Compound I-85, 4-((5-(2,4-difluoro-3-hydroxyphenyl)-1,3,4-thiadiazol-2-yl)methyl)-6-phenyl-4,6-diazaspiro[2.4]heptane-5,7-dione]	13.2
CCN1C(=O)N(Cc2nnc(-c3cnc(F)c(O)c3)s2)C2(CC2)C1=O [Compound I-2, 6-ethyl-4-((5-(6-fluoro-5-hydroxypyridin-3-yl)-1,3,4-thiadiazol-2-yl)methyl)-4,6-diazaspiro[2.4]heptane-5,7-dione]	156
N#Cc1ccccc1CN1C(=O)N(Cc2nnc(-c3ccc(F)c(O)c3Cl)s2)C2(CC2)C1=O [Compound I-38, 2-((4-((5-(2-chloro-4-fluoro-3-hydroxyphenyl)-1,3,4-thiadiazol-2-yl)methyl)-5,7-dioxo-4,6-diazaspiro[2.4]heptan-6-yl)methyl)benzonitrile]	39.4
O=C1N(CC(F)(F)F)C(=O)C2(CC2)N1Cc1nnc(-c2cc(C(F)(F)F)cc(O)c2F)s1 [Compound I-39, 4-((5-(2-fluoro-3-hydroxy-5-(trifluoromethyl)phenyl)-1,3,4-thiadiazol-2-yl)methyl)-6-(2,2,2-trifluoroethyl)-4,6-diazaspiro[2.4]heptane-5,7-dione]	8.45
O=C1N(Cc2ccccc2)C(=O)C2(CC2)N1Cc1nnc(-c2ccc(Cl)c(O)c2Cl)s1 [Compound I-36, 6-benzyl-4-((5-(2,4-dichloro-3-hydroxyphenyl)-1,3,4-thiadiazol-2-yl)methyl)-4,6-diazaspiro[2.4]heptane-5,7-dione]	38.5
O=C1N(C(c2ccc(F)cc2F)C(F)(F)F)C(=O)C2(CC2)N1Cc1nnc(-c2ccc(F)c(O)n2)s1 (stereo not shown) [Compound I-89, 6-(1-(2,4-difluorophenyl)-2,2,2-trifluoroethyl)-4-((5-(5-fluoro-6-hydroxypyridin-2-yl)-1,3,4-thiadiazol-2-yl)methyl)-4,6-diazaspiro[2.4]heptane-5,7-dione]	15.6
C[C@H](COCC(=O)O)N1C(=O)N(Cc2nnc(-c3ccc(F)c(O)c3F)s2)C2(CC2)C1=O [Compound I-48]	1060
C[C@@H](c1ccccc1)N1C(=O)N(Cc2nnc(-c3ccc(F)c(O)n3)s2)C2(CC2)C1=O [Compound I-80, (S)-4-((5-(5-fluoro-6-hydroxypyridin-2-yl)-1,3,4-thiadiazol-2-yl)methyl)-6-(1-phenylethyl)-4,6-diazaspiro[2.4]heptane-5,7-dione]	76.8
C[C@@H](CO)N1C(=O)N(Cc2nnc(-c3ccc(F)c(O)c3F)s2)C2(CC2)C1=O [Compound I-47, (S)-4-((5-(2,4-difluoro-3-hydroxyphenyl)-1,3,4-thiadiazol-2-yl)methyl)-6-(1-hydroxypropan-2-yl)-4,6-diazaspiro[2.4]heptane-5,7-dione]	53
O=C1N(CC(F)(F)F)C(=O)C2(CC2)N1Cc1nnc(-c2ccc(Cl)c(O)c2Cl)s1 [Compound I-17, 4-((5-(2,4-dichloro-3-hydroxyphenyl)-1,3,4-thiadiazol-2-yl)methyl)-6-(2,2,2-trifluoroethyl)-4,6-diazaspiro[2.4]heptane-5,7-dione]	106
CCN1C(=O)N(Cc2nnc(-c3ccc(F)c(O)c3F)s2)C2(CCC2)C1=O [Compound I-1, 5-((5-(2,4-difluoro-3-hydroxyphenyl)-1,3,4-thiadiazol-2-yl)methyl)-7-ethyl-5,7-diazaspiro[3.4]octane-6,8-dione]	56.7
